Measurements as given in patent publication US8420311B2, “Method to block the infection by flaviviruses, molecules and uses” (Centro de Ingenieria Genetica y Biotecnologia, priority 2006, dated 2013).
Bridges are numbered along the chain shown (N, C = ends). Where no end group is shown, it is not given here.

Key:
[1] = test system: DV4; type: cell-based, dengue virus; conditions: peptides 0.1 mg/ml; Vero cells
Description: (§1) DIII has one of the most variable regions of the exposed surface of protein E. In fact, one of the antigenic characteristics of this domain is that the antibodies obtained against this region are predominantly serotype-specific (Roehrig J T, Bolin R A, Kelly R G (1998) Monoclonal antibody mapping of the envelope glycoprotein of the dengue 2 virus, Jamaica Virology 246:317-28). However, during the inhibition assay with different DV serotypes, the peptides display a wide-spectrum inhibitory activity, efficiently inhibiting the infection of strains of the homologous, as well as of the heterologous serotypes (table 3). It is important to notice that at the assayed concentration (0.1 mg/ml) all the peptides in all the conditions, with the exception of peptide HIII4CL for DV3, produced higher than 50% inhibition levels.

[2] = test system: DV3; type: cell-based, dengue virus; conditions: peptides 0.1 mg/ml; Vero cells
Description: as §1

[3] = test system: DV1; type: cell-based, dengue virus; conditions: peptides 0.1 mg/ml; Vero cells
Protocol: (§2) FIG. 17. Inhibition of the infection of Vero cells with DV1 and DV2. (A) Six-well plates with a monolayer at approximately 90% confluence were incubated for 30 min. at 37° C. with dilutions of the peptides in MEM medium. A dilution of either DV1 strain West Pac 74 or DV2 strain S16803 was then added, calculated so as to obtain an average of 100 lytic plaques per well, and the plates were incubated for 30 min. at 37° C. with the virus/peptide mixture. After the incubation the cells were washed twice, received the addition of MEM medium supplemented with non-essential amino acids, 1% fetal calf serum, 1% CMC, and finally were incubated for 5 days at 37° C. under a CO2 atmosphere. (B) Inhibitory effect of the peptides at 100 μMol/L. NRpep: Non-related peptide. Data on the sequence of the peptides 3H5pept (SEQ ID. 27), pepDIII-1 (SEQ ID. 28), HIII2CL (SEQ ID. 5) and HIII3CL (SEQ ID. 7), as well as on the region they span on DIII from DV, can be obtained from FIG. 11. The calculation of the inhibition percentages is described in Materials and Methods. (C) Inhibition of DV2 infection by using varying peptide concentrations. The viral plaques were visualized by staining with Naphtol Blue Black. Cell control: Untreated cells. Virus control: Cells incubated with the virus, but without peptide.
as §1

[4] = test system: DV2; type: cell-based, dengue virus; conditions: peptides 0.1 mg/ml; Vero cells
Protocol: as §2, §1

[5] = test system: mAb 3H5; test: Recognition by mAb 3H5 in Western blotting / dot blotting; type: binding; conditions: signal lost upon reduction and carbamidomethylation
Description: FIG. 12. (A) Sequence of the peptides designed to mimic different regions on the surface of DIII. The residue numbering corresponds to the sequence for protein E of DV serotype 2, strain Jamaica 1409, available from the Swiss-Prot databank with access number P07564. The underlined residues are not present in protein E and were introduced during design. The cysteine residues are used to restrict the structural mobility of the peptide by a disulphide bridge. (B) Recognition of the HDIII2Cs peptide by the neutralizing antibody 3H5 in a Western blotting assay. 50 μg of the BSA-peptide conjugates and 20 μg of the recombinant protein PD5 were electrophoresed on a 12.5% SDS-PAGE gel and transferred to a nitrocellulose membrane. After blocking, the membrane was incubated with a dilution (30 μg/mL) of the 3H5 mAb for 2 hours at 25° C. The bound antibody was detected with an anti-mouse IgG-peroxidase conjugate, and the blots were developed using chemiluminescence. (C) Two pieces of nitrocellulose membrane were sensitized in parallel with 10 μg of each variant of the protein and of the peptides. […]
With the aim of evaluating the recognition of peptide HDIII2Cs by mAb 3H5, peptide-BSA conjugates were prepared and analyzed by Western blotting with this antibody (FIG. 12B). […]

[6] = test system: A2MR receptor; test: Effect of peptides on the binding of fluoresceinated A2M and RAPR13 to Vero cells (flow cytometry); type: cell-based, monkey; conditions: increasing peptide concentrations (FIG. 19)
Protocol: FIG. 19. Effect produced on the binding of A2M and RAPR13 to the surface of Vero cells by simultaneous incubation with the peptides. The fluoresceinated A2M and RAP13 proteins were incubated for 30 min. at 4° C. with pre-fixed Vero cells in the presence of varying concentrations of HIII2CL and 3H5pept in order to reach the indicated molar peptide/protein ratios. The binding of the labeled ligands was detected by flow cytometry.
In order to obtain a direct evidence of the interaction with the A2MR receptor, the effect of one of the designed peptides on the binding of the natural ligands of A2MR to Vero cells was investigated. The assay was performed with fluoresceinated A2M and RAPR13, measuring their binding to Vero cells in the presence of increasing concentrations of the HDIII2CL peptide. The amount of protein bound to the cells was estimated by flow cytometry, using recombinant human EGF (rhEGF) as a negative control for the experiment, since it is known that Vero cells express the EGF receptor in their surface (Copp J, Wiley S, Ward M W, van der Geer P (2005) Hypertonic shock inhibits growth factor receptor signaling, induces caspase-3 activation, and causes reversible fragmentation of the mitochondrial network. Am J Physiol Cell Physiol. 288:C403-15).

[7] = test system: DV; test: Inhibition of the infection of Vero cells with DV by pre-incubation of the virus with A2M; type: cell-based, dengue virus; conditions: incubation times with virus longer than 30 minutes (FIG. 20B)
Protocol: FIG. 20. Inhibition of the infection of Vero cells with DV by pre-incubation with A2M. Viral preparations were incubated 1 h at 25° C. (A and C) or the indicated time (B) with the proteins i. e. activated A2M (A2Mact), non-activated A2M (A2M no act) and a non-related protein (NR). The mixtures of the proteins with the virus were added to monolayers of Vero cells and incubated for 1 h at 37° C. The cell monolayers were washed to eliminate non-bound virus. Next, medium MEM supplemented with non-essential amino acids and 1% FBS, 1% CMC was added and the cells were incubated for 5 days at 37° C. in a CO2 incubator. To visualize the viral plaques, Vero cells were stained using Naphtol Blue Black. All experimental points were performed on duplicates.
To obtain further evidences of the interaction of DV with A2M, the two variants of the protein i.e. activated and non-activated were used in assays of inhibition of infection of Vero cells. The viral preparation was incubated with solutions of activated A2M of higher concentrations than the physiological concentrations reached by this variant of the protein. Solutions of equimolar concentration of non-activated A2M and a non-related protein were used as negative controls. […]

| Molecule | degree of reduction of the number of viral plaques, DV4 [1] | degree of reduction of the number of viral plaques, DV3 [2] | degree of reduction of the number of viral plaques, DV1 [3] | degree of reduction of the number of viral plaques, DV2 [4] | recognition by mAb 3H5 [5] | amount of surface-bound RAPR13 [6] | increase of viral infection [7] [%] |
| --- | --- | --- | --- | --- | --- | --- | --- |
| HDIII2Cs: cyclic peptide corresponding to Ile379-Lys388 from protein E of DV2, Seq. ID. 4 (CIIGVEPGQLKC-NH2; disulfide 1-12) | − (Less than 10% decrease in the number of plaques) | − (Less than 10% decrease in the number of plaques) | − (Less than 10% decrease in the number of plaques) | − (Less than 10% decrease in the number of plaques) | recognized by mAb 3H5 |  |  |
| 3H5pept: peptide reported in the literature as part of the epitope recognized by mAb 3H5, SEQ ID. 27 (KAQLKLNWFKKGSS) [Peptide 3H5pept, reference compound] | − (Less than 10% decrease in the number of plaques) | − (Less than 10% decrease in the number of plaques) | − (Less than 10% decrease in the number of plaques) | − (Less than 10% decrease in the number of plaques) |  | does not produce variations |  |
| non-activated A2M: non-activated variant of purified human A2M (protein) SVSGKPQYMVLVPSLLHTETTEKGCVLLSYLNETVTVSASLESVRGNRSLFTDLEAENDVLHCVAFAVPKSSSNEEVMFLTVQVKGPTQEFKKRTTVMVKNEDSLVFVQTDKSIYKPGQTVKFRVVSMDENFHPLNELIPLVYIQDPKGNRIAQWQSFQLEGGLKQFSFPLSSEPFQGSYKVVVQKKSGGRTEHPFTVEEFVLPKFEVQVTVPKIITILEEEMNVSVCGLYTYGKPVPGHVTVSICRKYSDASDCHGEDSQAFCEKFSGQLNSHGCFYQQVKTKVFQLKRKEYEMKLHTEAQIQEEGTVVELTGRQSSEITRTITKLSFVKVDSHFRQGIPFFGQVRLVDGKGVPIPNKVIFIRGNEANYYSNATTDEHGLVQFSINTTNVMGTSLTVRVNYKDRSPCYGYQWVSEEHEEAHHTAYLVFSPSKSFVHLEPMSHELPCGHTQTVQAHYILNGGTLLGLKKLSFYYLIMAKGGIVRTGTHGLLVKQEDMKGHFSISIPVKSDIAPVARLLIYAVLPTGDVIGDSAKYDVENCLANKVDLSFSPSQSLPASHAHLRVTAAPQSVCALRAVDQSVLLMKPDAELSASSVYNLLPEKDLTGFPGPLNDQDDEDCINRHNVYINGITYTPVSSTNEKDMYSFLEDMGLKAFTNSKIRKPKMCPQLQQYEMHGPEGLRVGFYESDVMGRGHARLVHVEEPHTETVRKYFPETWIWDLVVVNSAGVAEVGVTVPDTITEWKAGAFCLSEDAGLGISSTASLRAFQPFFVELTMPYSVIRGEAFTLKATVLNYLPKCIRVSVQLEASPAFLAVPVEKEQAPHCICANGRQTVSWAVTPKSLGNVNFTVSAEALESQELCGTEVPSVPEHGRKDTVIKPLLVEPEGLEKETTFNSLLCPSGGEVSEELSLKLPPNVVEESARASVSVLGDILGSAMQNTQNLLQMPYGCGEQNMVLFAPNIYVLDYLNETQQLTPEVKSKAIGYLNTGYQRQLNYKHYDGSYSTFGERYGRNQGNTWLTAFVLKTFAQARAYIFIDEAHITQALIWLSQRQKDNGCFRSSGSLLNNAIKGGVEDEVTLSAYITIALLEIPLTVTHPVVRNALFCLESAWKTAQEGDHGSHVYTKALLAYAFALAGNQDKRKEVLKSLNEEAVKKDNSVHWERPQKPKAPVGHFYEPQAPSAEVEMTSYVLLAYLTAQPAPTSEDLTSATNIVKWITKQQNAQGGFSSTQDTVVALHALSKYGAATFTRTGKAAQVTIQSSGTFSSKFQVDNNNRLLLQQVSLPELPGEYSMKVTGEGCVYLQTSLKYNILPEKEEFPFALGVQTLPQTCDEPKAHTSFQISLSVSYTGSRSASNMAIVDVKMVSGFIPLKPTVKMLERSNHVSRTEVSSNHVLIYLDKVSNQTLSLFFTVLQDVPVRDLKPAIVKVYDYYETDEFAIAEYNAPCSKDLGNA |  |  |  |  |  |  | ≤ 50 |
